Reference: US7417156B2, “Orally active, antimalarial, anticancer, artemisinin-derived trioxane dimers” (Johns Hopkins University, priority 2002, dated 2008)
“And” between values parts separate entries of the source, which are not always exact repeats. Equal values may be shown once. Where a name gives a salt, the structure may show the parent alone. Read-outs that look alike come from different tables or passages of the source.

Tests used:
[1] = system: chloroquine-sensitive P. falciparum (NF54); assay: Antimalarial activity in vitro, [3H]hypoxanthine incorporation; assay type: cell-based
60 cell line panel = assay type: cell-based; conditions: leukemia cell line RPM 1-8226, melanoma cell line SK-MEL-5, renal cancer cell line ACHN
[2] = system: P. berghei NY malaria parasite; assay: Antimalarial efficacies in vivo in mice
Excerpt: Neither overt toxicity nor behavioral modification was observed due to drug administration in any of these mouse experiments.

malaria parasite = assay: Efficacy Study Blood Schizontocidal Activity; assay type: in vivo; design: ED90: unit not given here
male CD-1 mice = assay: Acute toxicity study, single intraperitoneal injection; conditions: single ip, male CD-1 mice
Experimental: Each compound was dissolved in DMSO (Mallinkrodt Lot No. V18H15) to achieve a concentration of 200 mg/ml, and then 3 parts sesame oil (Spectrum Lot No. M10656) was added to make a working concentration of 50 mg/ml for dose administration. Stability, strength, and uniformity of the test articles in the dose formulations were not determined for this study.
Forty-two CD1 male mice purchased from Charles River Laboratories (Wilmington, Mass.) were used in the study. Mice were quarantined for 3 days prior to initiation of the study.
Mice were weighed and randomized into treatment groups on the day prior to the first dose administration. Due to limitations in the amount of available test materials, fewer mice in 1000 mg/kg groups were treated than specified in the protocol. The numbers of animals intended to be used and actually used with each compound at each dose level are shown in the table below; the only differences are in the high-dose groups.
Surviving animals were sacrificed on Day 8 and blood was collected for clinical pathology evaluations.
Mortality and morbidity were checked twice daily on weekdays and once daily on the weekend, see Table VI. Animals were weighed daily and prior to necropsy.

[3] = Stability in air (room temperature; accelerated aging at 60° C.); assay type: physicochemical
Excerpt: The next step, shown in FIG. 2, in the production of the novel meso trioxane dimer 3 involves the substitution of the acetoxy group from the C-10 acetate 2 product to form the meso trioxane dimer 3 product. Inspiration for this bis-allylation of C-10 acetate 2 was based on the pioneering trioxane mono-allylations of Ziffer (Pu, Y. M.; Ziffer, H., Synthesis and Antimalarial Activities of 12β-Allyldeoxoartemisinin. J. Med. Chem. 1995, 38, 613-616) and O'Neill (O'Neill, et al., J. Med. Chem. 1999, 42, 5487-5493; and O'Neill, P. M., et al., J. Chem. Soc., Perkin Trans. 2001, 1, 2682-2689.) using allylsilane and based also on allylic bis-silane chemistry, see Rychnovsky, S. D., et. al., Tetrahedron Lett. 1999, 40, 41-44. The requisite allylic bis-silane is easily prepared in one step from the corresponding commercial allylic dichloride (Shown in FIG. 2); in the presence of fresh tin tetrachloride, the allylic bis-silane converts acetate 2 on gram scale into meso dimer 3, characterized by ^1H NMR spectroscopy as done before in structurally related trioxanes. This double substitution reaction undoubtedly proceeds sequentially via initial monoallylation, producing an intermediate C-10 allylic silane that then reacts with another molecule of trioxane acetate 2 to form the product dimer 3. […]

[4] = rat liver microsomes; cited from earlier work
P. berghei = conditions: P. berghei-infected mice; cited from earlier work
[5] = system: Ehrlich ascites tumor (EAT) cells; conditions: MTT assay; cited from earlier work
[6] = Table I, NF54 strain, read-out: IC50

| SMILES | IC50 [1, 6] | IC50 [1] | other results |
| --- | --- | --- | --- |
| C[C@@H]1CC[C@H]2[C@@H](C)C(CC3(CC4OC5O[C@]6(C)CC[C@H]7[C@H](C)CC[C@@H]([C@H]4C)C57OO6)CO3)OC3O[C@]4(C)CCC1C32OO4 (stereo partly drawn) [Compound 6, bis-trioxane epoxide] | 2.8 nM | – | growth inhibition in words (60 cell line panel): less inhibitory |
| COC(=O)OCC(CC1OC2OC3(C)CCC4C(C)CCC(C1C)C24OO3)CC1OC2OC3(C)CCC4C(C)CCC(C1C)C24OO3 (stereo not drawn) [Compound 36, bis-trioxane primary alcohol methyl carbonate] | 1.7 nM | – | – |
| CC1CCC2C(C)C(OC(=O)c3cc[n+]([O-])cc3)OC3OC4(C)CCC1C32OO4 (stereo not drawn) [Compound 33, α-dihydroartemisinin isonicotinate N-oxide] | 0.81 nM | – | – |
| CC1CCC2C(C)C(CC3(CC4OC5OC6(C)CCC7C(C)CCC(C4C)C57OO6)COC(=O)O3)OC3OC4(C)CCC1C32OO4 (stereo not drawn) [Compound 41, bis-trioxane vicinal diol cyclic carbonate] | 0.59 nM | sub-nanomolar | – |
| COS(=O)(=O)CC(O)(CC1OC2OC3(C)CCC4C(C)CCC(C1C)C24OO3)CC1OC2OC3(C)CCC4C(C)CCC(C1C)C24OO3 (stereo not drawn) [Compound 38, bis-trioxane tertiary alcohol methyl sulfonate] | 200 nM | – | – |
| CC1CCC2C(C)C(CC(COC(=O)c3ccc[n+]([O-])c3)CC3OC4OC5(C)CCC6C(C)CCC(C3C)C46OO5)OC3OC4(C)CCC1C32OO4 (stereo not drawn) [Compound 15, bis-trioxane primary alcohol nicotinate N-oxide] | 0.58 nM | sub-nanomolar | – |
| CC1CCC2C(C)C(CC(CC3OC4OC5(C)CCC6C(C)CCC(C3C)C46OO5)OC(=O)c3ccc[n+]([O-])c3)OC3OC4(C)CCC1C32OO4 (stereo not drawn) [Compound 25, bis-trioxane secondary alcohol nicotinate N-oxide] | 0.31 nM | sub-nanomolar | – |
| CC1CCC2C(C)C(CC(O)(COC(=O)c3cc[n+]([O-])cc3)CC3OC4OC5(C)CCC6C(C)CCC(C3C)C46OO5)OC3OC4(C)CCC1C32OO4 (stereo not drawn) [Compound 18, bis-trioxane vicinal diol isonicotinate N-oxide] | 0.34 nM | sub-nanomolar | – |
| CC1CCC2C(C)C(CC3(CC4OC5OC6(C)CCC7C(C)CCC(C4C)C57OO6)COS(=O)(=O)O3)OC3OC4(C)CCC1C32OO4 (stereo not drawn) [Compound 42, bis-trioxane vicinal diol cyclic sulfate] | 19 nM | – | – |
| C[C@@H]1[C@H](OCc2ccc(C(=O)O)cc2)O[C@@H]2O[C@@]3(C)CC[C@@H]4[C@@H](C)CC[C@@H]1[C@]24OO3 [Artelinic Acid, artelinic acid, reference compound] | – | – | ED50 ([2]; route IV): 11.0 mg/kg × 4 and 5.6 mg/kg × 4; ED90 ([2]; route IV): 25.0 mg/kg × 4 and 43.0 mg/kg × 4; % Parasite Supression at 10 mg/kg ([2]; route IV): 54.7% and 42.4% |
| CCOC(=O)OCC(CC1OC2OC3(C)CCC4C(C)CCC(C1C)C24OO3)CC1OC2OC3(C)CCC4C(C)CCC(C1C)C24OO3 (stereo not drawn) [Compound 37, bis-trioxane primary alcohol ethyl carbonate] | 2.8 nM | – | – |
| CC1CCC2C(C)C(CC(O)CC3OC4OC5(C)CCC6C(C)CCC(C3C)C46OO5)OC3OC4(C)CCC1C32OO4 (stereo not drawn) [Compound 17, bis-trioxane secondary alcohol] | 0.66 nM | below one nM | – |
| CC1CCC2C(C)C(OC(=O)CN(C)C)OC3OC4(C)CCC1C32OO4 (stereo not drawn) [Compound 32, α-dihydroartemisinin dimethylglycinate] | 1.1 nM | – | – |
| C[C@H]1[C@H](OC(=O)CCC(=O)[O-])O[C@@H]2O[C@@]3(C)CC[C@H]4[C@H](C)CC[C@@H]1[C@@]24OO3.[Na+] [Sodium Artesunate, sodium artesunate, reference compound] | – | – | ED50 ([2]; route PO): 10.0 mg/kg × 4 and 5.5 mg/kg × 4; ED90 ([2]; route PO): 39.0 mg/kg × 4 and 70.0 mg/kg × 4; % Parasite Supression at 10 mg/kg ([2]; route PO): 52.8% and 50.9%; ED50 (malaria parasite; Route: IV): 5 mg/kg; ED90 (malaria parasite; Route: IV): 40.0; ED50 (malaria parasite; Route: PO): 6 mg/kg; ED90 (malaria parasite; Route: PO): 60.0; Mortality (male CD-1 mice; 125 mg/kg): No death; Mortality (male CD-1 mice; 250 mg/kg): 1/3 dead; Mortality (male CD-1 mice; 500 mg/kg): 3/3 dead |
| COP(=O)(OC)OCC(CC1OC2OC3(C)CCC4C(C)CCC(C1C)C24OO3)CC1OC2OC3(C)CCC4C(C)CCC(C1C)C24OO3 (stereo not drawn) [Compound 27, bis-trioxane primary alcohol dimethyl phosphoric acid triester] | 0.48 nM | sub-nanomolar | – |
| CC1CCC2C(C)C(CC(O)(CC3OC4OC5(C)CCC6C(C)CCC(C3C)C46OO5)CS(=O)(=O)N(C)C)OC3OC4(C)CCC1C32OO4 (stereo not drawn) [Compound 40, bis-trioxane tertiary alcohol N,N-dimethylsulfonamide] | 0.73 nM | sub-nanomolar | – |
| CC1CCC2C(C)C(CC(O)(COCC(=O)O)CC3OC4OC5(C)CCC6C(C)CCC(C3C)C46OO5)OC3OC4(C)CCC1C32OO4 (stereo not drawn) [Compound 21, bis-trioxane β-hydroxy O-acetic acid] | 4.4 nM | – | – |
| CC1CCC2C(C)C(CC(CC3OC4OC5(C)CCC6C(C)CCC(C3C)C46OO5)OC(=O)c3cc[n+]([O-])cc3)OC3OC4(C)CCC1C32OO4 (stereo not drawn) [Compound 24, bis-trioxane secondary alcohol isonicotinate N-oxide] | 0.42 nM | sub-nanomolar | – |
| CC1CCC2C(C)C(CC(O)(COC(=O)c3ccc[n+]([O-])c3)CC3OC4OC5(C)CCC6C(C)CCC(C3C)C46OO5)OC3OC4(C)CCC1C32OO4 (stereo not drawn) [Compound 23, bis-trioxane vicinal diol nicotinate N-oxide] | 0.4 nM | sub-nanomolar | – |
| C[C@@H]1CC[C@H]2[C@@H](C)C(CC(=O)CC3OC4O[C@]5(C)CC[C@H]6[C@H](C)CC[C@@H]([C@H]3C)C46OO5)OC3O[C@]4(C)CCC1C32OO4 (stereo partly drawn) [Compound 7, bis-trioxane ketone] | 0.91 nM | below one nM | antimalarial potency in vitro relative to artemisinin [1]: 10 times; growth inhibition in words (60 cell line panel): less inhibitory |
| CCOP(=O)(OCC)OCC(CC1OC2OC3(C)CCC4C(C)CCC(C1C)C24OO3)CC1OC2OC3(C)CCC4C(C)CCC(C1C)C24OO3 (stereo not drawn) [Compound 26, bis-trioxane primary alcohol diethyl phosphoric acid triester] | 0.74 nM | sub-nanomolar | – |
| CC1CCC2C(C)C(CC(COC(=O)c3ccncc3)CC3OC4OC5(C)CCC6C(C)CCC(C3C)C46OO5)OC3OC4(C)CCC1C32OO4 (stereo not drawn) [Compound 8b, bis-trioxane primary alcohol isonicotinate] | 1.7 nM | – | – |
| C=C(CC1OC2OC3(C)CCC4C(C)CCC(C1C)C24OO3)CC1OC2OC3(C)CCC4C(C)CCC(C1C)C24OO3 (stereo not drawn) [Compound 3, trioxane isobutene dimer] | – | – | IC50 ([1]; read-out: IC50): 24 nM; stability in air and light in words [3]: stable in air and light at room temperature for at least six months |
| CCO[C@H]1O[C@@H]2O[C@@]3(C)CC[C@H]4[C@H](C)CC[C@@H]([C@H]1C)[C@@]24OO3 [arteether] | – | – | conversion into dihydroartemisinin [4]: rapidly converted |
| C[C@H]1[C@@H](O[C@H]2O[C@@H]3O[C@@]4(C)CC[C@H]5[C@H](C)CC[C@@H]([C@H]2C)[C@@]35OO4)O[C@@H]2O[C@@]3(C)CC[C@H]4[C@H](C)CC[C@@H]1[C@@]24OO3 [II-7, dihydroartemisinin condensation by-product] | – | – | SD90 (P. berghei): 10 mg/kg; IC50 [5]: 1400 nM |
| CC1CCC2C(C)C(CC(O)(CC(=O)O)CC3OC4OC5(C)CCC6C(C)CCC(C3C)C46OO5)OC3OC4(C)CCC1C32OO4 (stereo not drawn) [Compound 35, bis-trioxane tertiary alcohol carboxylic acid] | 2 nM | – | – |
| CC1=CO[C@@H]2O[C@]3(C)CC[C@H]4[C@H](C)CC[C@@H]1[C@@]24OO3 [III] | – | – | activity in words (P. berghei): inactive |
